Test results: ChEMBL document CHEMBL5321210, “N-adamantyl-anthranil amide derivatives: New selective ligands for the cannabinoid receptor subtype 2 (CB2R)” (Eur J Med Chem, 2023)
Calls of active or inactive are those of the source. The calls are words filed in the database; no cut-off is given here.

What was measured:
[1] = system: THP-1; test: Antiinflammatory activity in human THP-1 monocytes assessed as increase in IL-4 production at 10 uM incubated for 24 hrs in the presence of JTE907 by ELISA coupled qRT-PCR analysis; format: functional, cell-based
[2] = system: THP-1; test: Antiinflammatory activity against LPS-activated PMA-differentiated human THP-1 macrophages assessed as decrease in IL-1beta production at 10 uM incubated for 24 hrs by ELISA coupled qRT-PCR analysis relative to control; format: functional; set-up: scale not given: the % may be the effect or the level left
[3] = system: THP-1; test: Antiinflammatory against LPS-activated human THP-1 monocytes assessed as decrease in TNF-alpha production at 10 uM incubated for 24 hrs in the presence of JTE907 by ELISA coupled qRT-PCR analysis; format: functional, cell-based
[4] = system: THP-1; test: Antiinflammatory activity in human THP-1 monocytes assessed as increase in IL-4 production at 1 to 10 uM incubated for 24 hrs in the presence of JTE907 by ELISA coupled qRT-PCR analysis; format: functional, cell-based; details: dose 1-10 µM
[5] = target: Cannabinoid receptor 2 (Homo sapiens, UniProt P34972); test: Agonist activity at human CB2 receptor expressed in CHO-K1 cells assessed as inhibition of NKH-477 induced cAMP production incubated for 30 mins by luminescence based analysis; format: functional, cell-based
Sequence of Cannabinoid receptor 2 (P34972 whole entry): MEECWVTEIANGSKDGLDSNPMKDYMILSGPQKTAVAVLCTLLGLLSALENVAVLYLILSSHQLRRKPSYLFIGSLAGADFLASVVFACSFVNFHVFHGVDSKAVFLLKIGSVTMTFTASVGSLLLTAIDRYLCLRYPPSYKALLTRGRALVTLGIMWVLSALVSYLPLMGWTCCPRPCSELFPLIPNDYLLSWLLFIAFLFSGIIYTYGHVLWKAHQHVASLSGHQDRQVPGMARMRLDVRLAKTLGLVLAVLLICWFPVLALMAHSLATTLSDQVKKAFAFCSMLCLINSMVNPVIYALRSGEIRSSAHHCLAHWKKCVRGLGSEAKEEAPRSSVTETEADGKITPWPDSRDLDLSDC

Structure (SMILES): O=C(NC1CCCCC1)c1cn(CCN2CCOCC2)c2cc(Cl)ccc2c1=O
- Activity [1]: inactive
- Activity [2]: 70%
- Activity [3]: inactive

Structure (SMILES): CCCCCNc1ccccc1C(=O)NC12CC3CC(CC(C3)C1)C2
- Activity [4]: inactive
- EC50 [5]: 560 nM
